B1: AV-PE: R-phycoerythrin labeled annexin V (protein, UniProt P08758 2-320, looked up)
Annexin A5: AQVLRGTVTDFPGFDERADAETLRKAMKGLGTDEESILTLLTSRSNAQRQEISAAFKTLFGRDLLDDLKSELTGKFEKLIVALMKPSRLYDAYELKHALKGAGTNEKVLTEIIASRTPEELRAIKQVYEEEYGSSLEDDVVGDTSGYYQRMLVVLLQANRDPDAGIDEAQVEQDAQALFQAGELKWGTDEEKFITIFGTRSVSHLRKVFDKYMTISGFQIEETIDRETSGNLEQLLLAVVKSIRSIPAYLAETLYYAMKGAGTDDHTLIRVMVSRSEIDLFNIRKEFRKNFATSLYSMIKGDTSGDYKKALLLLCGEDD
modifications: R-phycoerythrin label
notes: R-phycoerythrin labeled annexin V

Tested on: Jurkat cells
Experiment: Confocal microscopy of stained Jurkat cells with and without CPT treatment
Format: cell-based
From the text: FIGS. 5A-5D are confocal microscopy images of F1-EA staining Jurkat cell samples without the washing step. FIGS. 5A and 5C display the FITC channel; FIGS. 5B and 5D display the phase contrast channel.
FIGS. 6A-6D are micrographs depicting representative confocal images.
FIGS. 8A-8D are a series of micrographs depicting confocal microscopy images of Rhodamine B and Rd-EA staining Jurkat cell samples. FIGS. 8A and 8B show Rhodamine B stained cells while FIGS. 8C and 8D show Rd-EA stained cells. FIGS. 8A and 8C are CPT treated cells while
The specificity of F1-EA for apoptotic cells were further validated through a costaining experiment with the R-phycoerythrin labeled annexin V (AV-PE, yellow emission). […] The flow cytometry result was further validated with confocal microscopy analysis.

| Molecule | selectivity of staining for apoptotic cells (confocal images, CPT-treated vs untreated Jurkat cells) | location of the stain in CPT-treated cells (confocal image, CPT-treated Jurkat cells) |
| --- | --- | --- |
| CCN(CC)c1ccc2c(-c3ccccc3C(=O)O)c3ccc(=[N+](CC)CC)cc-3oc2c1.[Cl-] [Rhodamine B] | no selectivity | – |
| B1 | – | membrane location |
